US6875748B2, “Compositions and methods for in vivo delivery of polynucleotide-based therapeutics” (Vical Incorporated, priority 2000, dated 2005)
Where “and” joins values, the source holds several entries; their conditions need not be identical. Equal entries are not always repeated. Where two headings read alike, the source gives them in different places.

Experiments:
[1] = Osmolarity of the salt solutions; assay type: physicochemical; conditions: for Osm: 150 mM unless otherwise indicated
mouse quadriceps muscle [2] = experiment: Luciferase expression in mouse quadriceps muscle 7 days after i.m. injection of plasmid VR1223 in salt solutions; assay type: in vivo; set-up: lux: unit: ng/muscle; conditions: for ng luciferase per muscle / ng Lux/Muscle: 50 μg VR1223 in 50 μl; for ng luciferase per muscle / ng Lux/Muscle / luciferase in muscle / Fold Saline / ng Lux per Muscle: day 7; for luciferase in muscle: Example 4, run in parallel; for lux: 7-day luciferase expression, VR1223; for luciferase expression, fold over saline: VR1223, day 7; for ng luciferase/muscle: average of all 9 experiments; for ng lux/muscle: reproducibility; for ng Lux per Muscle: 50 μg VR1223 in 50 μl of the solution
mouse quadriceps muscle [3] = experiment: Luciferase expression in mouse quadriceps muscle after i.m. injection of plasmid VR1255 with auxiliary agents; conditions: day 7
influenza nucleoprotein [4] = conditions: 9 weeks post-vaccination, versus saline
influenza nucleoprotein [5] = conditions: 5 μg VR4700 days 0 and 21, 6 weeks
mouse quadriceps muscle [6] = experiment: β-galactosidase expression in mouse quadriceps muscle after i.m. injection of plasmid VR1418; conditions: for β-galactosidase in muscle: 10 μg VR1418, day 7
Experimental: The luciferase content of the samples was calculated from Relative Light Units using a standard curve of purified firefly luciferase (Analytical Luminescence Laboratory, San Diego, Calif.; Cat. No. 2400), which was diluted in pooled extract from uninjected muscles to control for quenching. Luciferase values were expressed as ng luciferase per muscle. […] A standard curve, prepared in pooled extract from uninjected muscles, was included on each plate using the β-galactosidase enzyme standard included in the kit.
(§1) Muscle extracts were assayed for β-galactosidase and the serum was assayed for circulating levels of IFN-ω.
Quadriceps muscles were injected with 50 μl of each solution containing 10 μg of plasmid VR1418, and the muscles were tested for 7-day expression levels.

mouse quadriceps muscle [7] = experiment: Hematocrit after i.m. injection of mouse erythropoietin plasmid (VR2901, VR2996); assay type: in vivo; conditions: 10 μg or 2.5 μg VR2901, four weeks
Experimental: Hematocrits were measured by centrifugation of blood obtained from the retro-orbital cavity of mice. Blood samples were collected in 75 μl heparinized capillary tubes and analyzed using HemaSTAT II microhematocrit centrifuge (Separation Technology, Inc., Altamonte Springs, Fla.).
The mice were monitored over time for serum hematocrit levels, which correlate with the expression of erythropoeitin.
The mice were monitored over four weeks for serum hematocrit levels, which correlate with the expression of erythropoeitin.
The mice were monitored at days 0, 7, 14, 21, and 28 for serum hematocrit levels, which correlate with the expression of erythropoeitin.
The mice were monitored at days 7, 14, and 28 for serum hematocrit levels, which correlate with the expression of erythropoeitin. Control serum levels were measured before any injections.

mouse quadriceps muscle [8] = experiment: Serum human IFN-ω after i.m. injection of plasmid VR4151; assay type: in vivo; conditions: for serum IFN-ω levels: 50 μg VR4151, day 7
Experimental: as §1

pH of the salt solutions = assay type: physicochemical
mouse lung = experiment: Luciferase expression in mouse lung 3 days after intranasal instillation of VR1223 complexed with GAP-DLRIE/DOPE; assay type: in vivo; conditions: day 3; for luciferase expression in lung: 132 μg VR1223 + GAP-DLRIE/DOPE
B16F10 tumor cells = experiment: Anti-tumor effect of i.m. mIFN-α plasmid VR4111 in mice bearing subcutaneous B16F10 tumors; assay type: in vivo, mouse; conditions: for tumor volume: 27 days, VR4111; for survival versus blank DNA in saline: p<0.007, Kaplan-Meier
mouse quadriceps muscle [9] = experiment: β-galactosidase-stained muscle fibers after i.m. injection of plasmid VR1412; assay type: in vivo; conditions: 50 μg VR1412, day 7, n=10
Experimental: For whole muscle staining, quadriceps were fixed for 3 hours at room temperature in 2% paraformaldehyde in PBS, washed 3 times for 20 min each in PBS and incubated for 18 hours at 37° C. in a solution containing 2 mM MgCl2, 5 mM potassium ferricferrocyanide and 1 mg/ml 5-bromo-4-chloro-3-indoyl-β-D-galactosidase (available from Life Technologies, Inc. (LTI), Gaithersberg, Md.) in PBS. After incubation, the muscles were washed 3 times for 10 min each in 3% dimethyl sulfoxide in PBS and stored in PBS at 4° C. until analysis. […] Sections were collected on 1% gelatin coated glass slides, brought to room temperature and stained for 2 hours at 37° C. in the same reagent as for whole mounts above except that the beta-galactosidase reagent concentration was 200 μg/ml. The sections were then counterstained with Harris hematoxylin in acetic acid, rinsed in tap water, dehydrated and mounted in Permount (Fisher, Fair Lawn, N.J.).
Individual muscle cells were examined for β-galactosidase expression as follows.
Whole quadriceps muscle groups were harvested on day 7. Muscles were snap frozen in OTC medium (n=10 muscles for each group). 10 micron cross-sections were stained with x-gal (substrate for β-gal). Fibers expressing β-gal (stained blue) were counted.

rectus femoris muscle = conditions: for cats with elevated hematocrit: no agent
Text: Two milliliters of DNA were delivered as 1-ml injections into each rectus femoris muscle. Following injection, cats were monitored at 7 day intervals for serum hematocrit levels, which correlate with the expression of erythropoeitin.

[10] = test system: tibialis anterior muscles of nude mice; experiment: Serum SEAP after injection of plasmid VR3301 into tibialis anterior muscles of nude mice; assay type: in vivo, mouse
Experimental: Briefly, tissues were rapidly collected and frozen, they were combined with and frozen into a lysis buffer, the tissue was then pulverized with a drill bit run in reverse direction, the resulting powder was thawed, and was extracted two times with extraction buffer. Nude mice were injected with VR3301 DNA bilaterally on three consecutive days for a total of 300 μg DNA per mouse.
Sera from nude mice injected with VR3301 were collected at various times post-injection. […] Samples were assayed in duplicate. Plates were sealed, incubated at 65° C. for 30 min and spun for 5 min at 4000 rpm at room temperature. […] The samples were analyzed using a Molecular Devices Opti Max plate reader (Sunnyvale, Calif.). The plate reader was pre-warmed to 37° C. and a standard kinetic program was used to assay the samples at a wavelength of 405 nm for 30 min.
The mice were monitored over time for blood levels of SEAP or proinsulin or for hematocrits. In the case of SEAP, plasmid DNA was injected into the tibialis anterior muscles, and nude mice were used to prevent an immune response to the foreign transgene product.
The mice were monitored for blood levels of SEAP at day 7 post-injection. Plasmid DNA was injected into the tibialis anterior muscles, and nude mice were used to prevent an immune response to the foreign transgene product.

[11] = listed as 50 mM sodium phosphate
[12] = listed as 100 mM sodium phosphate
[13] = listed as 150 mM sodium phosphate
[14] = salts at 150 mM, relative to saline
[15] = 150 mM unless otherwise indicated

## O=P(O)(O)O [Sodium Phosphate]
[1]; listed as 50 mM Sodium Phosphate
  Osm: 83 mmol/kg
[1]; listed as 100 mM Sodium Phosphate
  Osm: 232 mmol/kg
[1]; listed as 150 mM Sodium Phosphate
  Osm: 308 mmol/kg
[1]; [11]
  osmolarity: 83 mmol/kg
[1]; [12]
  osmolarity: 270 mmol/kg
[1]; [13]
  osmolarity: 310 mmol/kg
Mouse quadriceps muscle [2]
  ng luciferase per muscle: 386 ng luciferase per muscle
  luciferase in muscle: 769 ng/muscle
  ng luciferase/muscle: 490 ng luciferase/muscle
Mouse quadriceps muscle [2]; salts at 150 mM
  ng Lux/Muscle: 481 ng/Muscle
Mouse quadriceps muscle [2]; 80 mM, 100 mM, 150 mM and 200 mM sodium phosphate, p<0.05
  luciferase expression compared with saline (words): significantly higher than saline
Mouse quadriceps muscle [2]; Example 4, day 7
  luciferase in muscle, fold over saline: 4.8 fold
Mouse quadriceps muscle [2]; Exp. #1 (highest)
  enhancement over saline: 7.3 fold
Mouse quadriceps muscle [2]; Exp. #9 (lowest)
  enhancement over saline: 2.5 fold
Mouse quadriceps muscle [2]; Table III-A
  lux: 481
Mouse quadriceps muscle [2]; Table III-A, listed as 50 mM Sodium Phosphate
  lux: 254
Mouse quadriceps muscle [2]; Table III-A, listed as 100 mM Sodium Phosphate
  lux: 270
Mouse quadriceps muscle [2]; Table III-A, listed as 150 mM Sodium Phosphate
  lux: 481
Mouse quadriceps muscle [2]; Table III-B, listed as 50 mM Sodium Phosphate
  lux: 254
Mouse quadriceps muscle [2]; Table III-B, listed as 100 mM Sodium Phosphate
  lux: 270
Mouse quadriceps muscle [2]; Table III-B, listed as 150 mM Sodium Phosphate
  lux: 481
Mouse quadriceps muscle [2]; [11]
  luciferase expression, fold over saline: 2.1 fold
Mouse quadriceps muscle [2]; [12]
  luciferase expression, fold over saline: 2.3 fold
Mouse quadriceps muscle [2]; [13]
  luciferase expression, fold over saline: 4.3 fold and 4 fold
Mouse quadriceps muscle [2]; all 9 experiments
  average enhancement over saline: 4.1 fold
Mouse quadriceps muscle [2]; Exp. #1
  ng lux/muscle: 362 ng lux/muscle
Mouse quadriceps muscle [2]; Exp. #9
  ng lux/muscle: 384 ng lux/muscle
Mouse quadriceps muscle [2]; [14]
  Fold Saline: 4.0 Fold
Mouse quadriceps muscle [2]; sodium phosphate below 40 mM or above 300 mM
  luciferase expression compared with saline (words): equal to or lower than those seen with saline
β-galactosidase; 10 μg VR1412, four weeks
  mice with anti-β-galactosidase antibody: none of the mice
β-galactosidase; 10 μg VR1412, two weeks
  mice with anti-β-galactosidase antibody: none of the mice
Mouse quadriceps muscle [3]; 50 μg VR1255 in 50 μl 150 mM sodium phosphate with added agents
  Average μg luciferase muscle: 0.37 µg
Influenza nucleoprotein [4]
  anti-NP specific CTL activity: statistically similar
Influenza nucleoprotein [5]
  serum anti-NP antibody titers: enhanced serum anti-NP antibody titers compared with saline solution
Mouse quadriceps muscle [6]
  β-galactosidase in muscle: 9.8 ng/muscle
Mouse quadriceps muscle [6]; 10 μg VR1418, day 7, data not shown
  optimal molar concentration for β-galactosidase expression: 150 mM
Mouse quadriceps muscle [6]; day 7
  β-galactosidase in muscle, fold over saline: 3.3 fold
Mouse quadriceps muscle [7]
  hematocrit versus plasmid DNA in saline: higher hematocrit levels
Mouse quadriceps muscle [8]
  serum IFN-ω levels: 0.35 ng ml serum
Mouse quadriceps muscle [8]; day 7
  serum IFN-ω levels, fold over saline: 2.5 fold
pH of the salt solutions; [15]
  pH: 7.2
pH of the salt solutions; 150 mM unless otherwise indicated, listed as 50 mM Sodium Phosphate
  pH: 7.2
pH of the salt solutions; 150 mM unless otherwise indicated, listed as 100 mM Sodium Phosphate
  pH: 7.2
pH of the salt solutions; 150 mM unless otherwise indicated, listed as 150 mM Sodium Phosphate
  pH: 7.2
Mouse lung; listed as 2.5 mM sodium phosphate
  luciferase expression in lung: 5.2 ng lux/lung
Mouse lung; [13]
  luciferase expression in lung: 0.22 ng lux/lung
Mouse lung
  luciferase expression in lung compared with water: enhanced compared with water, but not as much as with 2.5 mM sodium phosphate
  luciferase expression in lung, fold compared with water: 5.5 fold
B16F10 tumor cells
  tumor volume: 955 mm^3
  survival versus blank DNA in saline: statistically significant survival difference
B16F10 tumor cells; VR4111 100 μg i.m., up to 22 days
  tumor growth versus blank DNA controls: lower rate of tumor growth
B16F10 tumor cells; to day 41, VR4111
  mice surviving: 4 out of 10
Mouse quadriceps muscle [9]
  β-galactosidase-positive myofiber cells: 186+/−43 myofiber cells/muscle section
Rectus femoris muscle; group 3, 1 mg/ml DNA
  cats with elevated hematocrit: one cat
Rectus femoris muscle; groups 1 and 2, 5 and 3 mg/ml DNA
  cats with elevated hematocrit: No cats

## octyl phenol ethylene oxide condensate with about 9-10 ethylene oxide units [Triton X-100]
β-galactosidase; 10 μg VR1412, four weeks
  mice with anti-β-galactosidase antibody: three of the five
β-galactosidase; 10 μg VR1412, ten weeks
  mice with anti-β-galactosidase antibody: four of the five
Mouse quadriceps muscle [3]; 0.01% agent in saline versus saline alone
  increase of luciferase expression in 154 mM sodium chloride: six-fold
[10]; day 7
  SEAP expression with 100 μg DNA plus agent versus 300 μg DNA in 150 mM sodium phosphate alone: nearly equivalent
  SEAP expression, fold compared with sodium phosphate alone: 1.7 fold
[10]; day 35
  SEAP expression, fold compared with 150 mM sodium phosphate alone: 2 fold
Rectus femoris muscle; group 4
  period of elevated hematocrit: > 40 days

## [Cl-].[Na+] [Sodium Chloride, reference compound]
[1]; listed as 100 mM NaCl
  Osm: 215 mmol/kg
[1]; listed as 150 mM NaCl (Saline)
  Osm: 310 mmol/kg
[1]; listed as saline
  osmolarity: 310 mmol/kg and 308 mmol/kg
Mouse quadriceps muscle [2]; listed as 100 mM Sodium Chloride
  ng Lux per Muscle: 112 ng per Muscle
Mouse quadriceps muscle [2]; listed as 150 mM Sodium Chloride (saline)
  ng Lux per Muscle: 119 ng per Muscle
Mouse quadriceps muscle [2]; listed as 100 mM NaCl
  ng luciferase per muscle: 112 ng luciferase per muscle
Mouse quadriceps muscle [2]; listed as saline
  ng luciferase per muscle: 119 ng luciferase per muscle and 89 ng luciferase per muscle
Mouse quadriceps muscle [2]; salts at 150 mM
  ng Lux/Muscle: 119 ng/Muscle
Mouse quadriceps muscle [2]
  luciferase in muscle: 159 ng/muscle
  ng luciferase/muscle: 120 ng luciferase/muscle
Mouse quadriceps muscle [2]; Table III-A
  lux: 119
Mouse quadriceps muscle [2]; Table III-A, listed as 100 mM NaCl
  lux: 112
Mouse quadriceps muscle [2]; Table III-A, listed as 150 mM NaCl (Saline)
  lux: 119
Mouse quadriceps muscle [2]; Table III-B, listed as 100 mM NaCl
  lux: 112
Mouse quadriceps muscle [2]; Table III-B, listed as 150 mM NaCl (Saline)
  lux: 119
Mouse quadriceps muscle [2]; luciferase expression relative to saline, listed as 100 mM Sodium Chloride
  Fold Saline: 0.9 Fold
Mouse quadriceps muscle [2]; luciferase expression relative to saline, listed as 150 mM Sodium Chloride (saline)
  Fold Saline: 1.0 Fold
Mouse quadriceps muscle [2]; Exp. #1
  ng lux/muscle: 49 ng lux/muscle
Mouse quadriceps muscle [2]; Exp. #9
  ng lux/muscle: 156 ng lux/muscle
Mouse quadriceps muscle [2]; [14]
  Fold Saline: 1.0 Fold
Mouse quadriceps muscle [6]
  β-galactosidase in muscle: 3.0 ng/muscle
Mouse quadriceps muscle [8]
  serum IFN-ω levels: 0.14 ng ml serum
pH of the salt solutions
  pH: 5.5
pH of the salt solutions; [15]
  pH: 5.5
Mouse lung
  luciferase expression in lung: 0.14 ng lux/lung
B16F10 tumor cells
  tumor volume: 2069 mm^3
  survival versus blank DNA in saline: statistically significant survival difference
B16F10 tumor cells; to day 38, VR4111
  mice surviving: 2 out of 10
Mouse quadriceps muscle [9]
  β-galactosidase-positive myofiber cells: 108+/−21 myofiber cells/muscle section
